Experimental data: ChEMBL document CHEMBL1141992, “Synthesis and radiopharmacological evaluation of 2'-(4-fluorophenyl)-21-[18F]fluoro-20-oxo-11beta,17alpha-dihydroxy-pregn-4-eno[3,2-c]pyrazole as potential glucocorticoid receptor ligand for positron emission tomography (PET)” (Bioorg Med Chem Lett, 2005)

Experiments:
[1] = Radioactivity expressed as percent injected dose per gram after single intravenous injection of 50 uCi after 5 min in rat thymus;n =4; format: ADME; conditions: in vivo
[2] = Radioactivity expressed as percent injected dose per gram after single intravenous injection of 50 uCi after 60 min in rat liver;n =4; format: ADME, tissue-based; conditions: in vivo, 1 h
[3] = Radioactivity expressed as percent injected dose per gram after single intravenous injection of 50 uCi after 5 min in rat adrenals;n =4; format: ADME, tissue-based, Adrenal gland; conditions: in vivo
[4] = Radioactivity expressed as percent injected dose per gram after single intravenous injection of 50 uCi after 60 min in rat hard glands;n =4; format: ADME; conditions: in vivo, 1 h
[5] = Radioactivity expressed as percent injected dose per gram after single intravenous injection of 50 uCi after 5 min in rat blood;n =4; format: ADME; conditions: in vivo
[6] = Radioactivity expressed as percent injected dose per gram after single intravenous injection of 50 uCi after 60 min in rat fat;n =4; format: ADME; conditions: in vivo, 1 h
[7] = Radioactivity expressed as percent injected dose per gram after single intravenous injection of 50 uCi after 60 min in rat adrenals;n =4; format: ADME, tissue-based, Adrenal gland; conditions: in vivo, 1 h
[8] = Radioactivity expressed as percent injected dose per gram after single intravenous injection of 50 uCi after 5 min in rat kidney;n =4; format: ADME, tissue-based; conditions: in vivo
[9] = Radioactivity expressed as percent injected dose per gram after single intravenous injection of 50 uCi after 5 min in rat pituitary;n =4; format: ADME; conditions: in vivo
[10] = Activity distribution of compound in blocked (hydrocortisone) rat brain pituitary after single iv injection of 0.9 mCi at 60 min after injection by ex vivo autoradiography; format: ADME, organism-based; conditions: 1 h
[11] = Radioactivity expressed as percent injected dose per gram after single intravenous injection of 50 uCi after 5 min in rat muscle;n =4; format: ADME, tissue-based, Muscle tissue; conditions: in vivo
[12] = Activity distribution of compound in blocked (hydrocortisone) rat brain inferior coliculi after single iv injection of 0.9 mCi at 60 min after injection by ex vivo autoradiography; format: ADME, organism-based; conditions: 1 h
[13] = Radioactivity expressed as percent injected dose per gram after single intravenous injection of 50 uCi after 5 min in rat brain;n =4; format: ADME, tissue-based; conditions: in vivo
[14] = Radioactivity expressed as percent injected dose per gram after single intravenous injection of 50 uCi after 60 min in rat heart;n =4; format: ADME; conditions: in vivo, 1 h
[15] = Activity distribution of compound in blocked (hydrocortisone) rat brain cerebellar nuclei after single iv injection of 0.9 mCi at 60 min after injection by ex vivo autoradiography; format: ADME, organism-based; conditions: 1 h
[16] = Radioactivity expressed as percent injected dose per gram after single intravenous injection of 50 uCi after 60 min in rat brown fat;n =4; format: ADME; conditions: in vivo, 1 h
[17] = Radioactivity expressed as percent injected dose per gram after single intravenous injection of 50 uCi after 60 min in rat brain;n =4; format: ADME, tissue-based; conditions: in vivo, 1 h
[18] = Radioactivity expressed as percent injected dose per gram after single intravenous injection of 50 uCi after 5 min in rat heart;n =4; format: ADME; conditions: in vivo
[19] = Radioactivity expressed as percent injected dose per gram after single intravenous injection of 50 uCi after 60 min in rat lung;n =4; format: ADME; conditions: in vivo, 1 h
[20] = Radioactivity expressed as percent injected dose per gram after single intravenous injection of 50 uCi after 60 min in rat femur;n =4; format: ADME, tissue-based; conditions: in vivo, 1 h
[21] = Radioactivity expressed as percent injected dose per gram after single intravenous injection of 50 uCi after 60 min in rat kidney;n =4; format: ADME, tissue-based; conditions: in vivo, 1 h
[22] = Radioactivity expressed as percent injected dose per gram after single intravenous injection of 50 uCi after 5 min in rat fat;n =4; format: ADME; conditions: in vivo
[23] = Radioactivity expressed as percent injected dose per gram after single intravenous injection of 50 uCi after 5 min in rat brown fat;n =4; format: ADME; conditions: in vivo
[24] = Radioactivity expressed as percent injected dose per gram after single intravenous injection of 50 uCi after 5 min in rat testis;n =4; format: ADME; conditions: in vivo
[25] = Radioactivity expressed as percent injected dose per gram after single intravenous injection of 50 uCi after 5 min in rat liver;n =4; format: ADME, tissue-based; conditions: in vivo
[26] = Activity distribution of compound in blocked (hydrocortisone) rat brain hippocampus after single iv injection of 0.9 mCi at 60 min after injection by ex vivo autoradiography; format: ADME, organism-based; conditions: 1 h
[27] = Radioactivity expressed as percent injected dose per gram after single intravenous injection of 50 uCi after 60 min in rat pancreas;n =4; format: ADME; conditions: in vivo, 1 h
[28] = Radioactivity expressed as percent injected dose per gram after single intravenous injection of 50 uCi after 60 min in rat spleen;n =4; format: ADME, tissue-based; conditions: in vivo, 1 h
[29] = Activity distribution of compound in blocked (hydrocortisone) rat brain plexus choroideus after single iv injection of 0.9 mCi at 60 min after injection by ex vivo autoradiography; format: ADME, organism-based; conditions: 1 h
[30] = Radioactivity expressed as percent injected dose per gram after single intravenous injection of 50 uCi after 60 min in rat thymus;n =4; format: ADME; conditions: in vivo, 1 h
[31] = Radioactivity expressed as percent injected dose per gram after single intravenous injection of 50 uCi after 60 min in rat testis;n =4; format: ADME; conditions: in vivo, 1 h
[32] = Radioactivity expressed as percent injected dose per gram after single intravenous injection of 50 uCi after 5 min in rat hard glands;n =4; format: ADME; conditions: in vivo
[33] = Radioactivity expressed as percent injected dose per gram after single intravenous injection of 50 uCi after 5 min in rat femur;n =4; format: ADME, tissue-based; conditions: in vivo
[34] = Radioactivity expressed as percent injected dose per gram after single intravenous injection of 50 uCi after 5 min in rat pancreas;n =4; format: ADME; conditions: in vivo
[35] = Activity distribution of compound in blocked (hydrocortisone) rat brain cortex after single iv injection of 0.9 mCi at 60 min after injection by ex vivo autoradiography; format: ADME, organism-based; conditions: 1 h
[36] = Radioactivity expressed as percent injected dose per gram after single intravenous injection of 50 uCi after 60 min in rat muscle;n =4; format: ADME, tissue-based, Muscle tissue; conditions: in vivo, 1 h
[37] = Radioactivity expressed as percent injected dose per gram after single intravenous injection of 50 uCi after 60 min in rat pituitary;n =4; format: ADME; conditions: in vivo, 1 h
[38] = Radioactivity expressed as percent injected dose per gram after single intravenous injection of 50 uCi after 5 min in rat spleen;n =4; format: ADME, tissue-based; conditions: in vivo
[39] = Radioactivity expressed as percent injected dose per gram after single intravenous injection of 50 uCi after 5 min in rat lung;n =4; format: ADME; conditions: in vivo
[40] = Radioactivity expressed as percent injected dose per gram after single intravenous injection of 50 uCi after 60 min in rat blood;n =4; format: ADME; conditions: in vivo, 1 h

ID/g [1]: 0.37%
ID/g [2]: 2.15%
ID/g [3]: 1.23%
ID/g [4]: 0.55%
ID/g [5]: 0.06%
ID/g [6]: 0.31%
ID/g [7]: 1.96%
ID/g [8]: 0.66%
ID/g [9]: 0.52%
ID/g [10]: 1.36%
ID/g [11]: 0.31%
ID/g [12]: 0.89%
ID/g [13]: 0.26%
ID/g [14]: 0.66%
ID/g [15]: 0.94%
ID/g [16]: 0.91%
ID/g [17]: 0.25%
ID/g [18]: 0.63%
ID/g [19]: 0.66%
ID/g [20]: 0.22%
ID/g [21]: 0.87%
ID/g [22]: 0.82%
ID/g [23]: 0.8%
ID/g [24]: 0.18%
ID/g [25]: 1.3%
ID/g [26]: 0.59%
ID/g [27]: 0.85%
ID/g [28]: 0.44%
ID/g [29]: 0.83%
ID/g [30]: 0.4%
ID/g [31]: 0.07%
ID/g [32]: 1.09%
ID/g [33]: 0.34%
ID/g [34]: 0.85%
ID/g [35]: 0.7%
ID/g [36]: 0.32%
ID/g [37]: 0.82%
ID/g [38]: 0.4%
ID/g [39]: 0.6%
ID/g [40]: 0.08%
Compound: C[C@]12Cc3cnn(-c4ccc(F)cc4)c3C=C1CCC1C2[C@@H](O)C[C@@]2(C)C1CC[C@]2(O)C(=O)C[18F] (stereo not given in full)
